# According to the supplement of paper PMC10307832:
# Key:
# Assay in all cases: relative viability (nuclei count vs DMSO), 5 days (fraction); higher = more cells survive
# Bleomycin + Dasatinib = compound: CC1=C(N=C(N=C1N)[C@H](CC(=O)N)NC[C@@H](C(=O)N)N)C(=O)N[C@@H]([C@H](C2=CN=CN2)OC3C(C(C(C(O3)CO)O)O)OC4C(C(C(C(O4)CO)O)OC(=O)N)O)C(=O)N[C@H](C)[C@H]([C@H](C)C(=O)N[C@@H]([C@@H](C)O)C(=O)NCCC5=NC(=CS5)C6=NC(=CS6)C(=O)NCCC[S+](C)C)O [Bleomycin] + Cc1nc(Nc2ncc(C(=O)Nc3c(C)cccc3Cl)s2)cc(N2CCN(CCO)CC2)n1 [Dasatinib] (partner 0.075 µM); conditions: main component drawn
# How it was run: (§1)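 Lung cancer cell lines in 1536-well plates got either a single drug or a fixed anchor-drug dose together with five library-drug doses (not always all listed) in √10 steps, by pin tool, on the day after seeding. Nuclei were counted after 5 days, and relative viability is the treated-to-vehicle ratio of nuclei counts. Values are medians of duplicate plates.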
# Bleomycin + Pemetrexed = compound: CC1=C(N=C(N=C1N)[C@H](CC(=O)N)NC[C@@H](C(=O)N)N)C(=O)N[C@@H]([C@H](C2=CN=CN2)OC3C(C(C(C(O3)CO)O)O)OC4C(C(C(C(O4)CO)O)OC(=O)N)O)C(=O)N[C@H](C)[C@H]([C@H](C)C(=O)N[C@@H]([C@@H](C)O)C(=O)NCCC5=NC(=CS5)C6=NC(=CS6)C(=O)NCCC[S+](C)C)O [Bleomycin] + Nc1nc2[nH]cc(CCc3ccc(C(=O)N[C@@H](CCC(=O)O)C(=O)O)cc3)c2c(=O)[nH]1 [Pemetrexed] (partner 0.2 µM); conditions: main component drawn
# How it was run: as §1
# Etoposide + Lapatinib = compound: COc1cc([C@@H]2c3cc4c(cc3[C@@H](O[C@@H]3O[C@@H]5CO[C@@H](C)O[C@H]5[C@H](O)[C@H]3O)[C@H]3COC(=O)[C@H]23)OCO4)cc(OC)c1O [Etoposide] + CS(=O)(=O)CCNCc1ccc(-c2ccc3ncnc(Nc4ccc(OCc5cccc(F)c5)c(Cl)c4)c3c2)o1 [Lapatinib] (partner 2 µM)
# How it was run: as §1
# Bleomycin + Linsitinib = compound: CC1=C(N=C(N=C1N)[C@H](CC(=O)N)NC[C@@H](C(=O)N)N)C(=O)N[C@@H]([C@H](C2=CN=CN2)OC3C(C(C(C(O3)CO)O)O)OC4C(C(C(C(O4)CO)O)OC(=O)N)O)C(=O)N[C@H](C)[C@H]([C@H](C)C(=O)N[C@@H]([C@@H](C)O)C(=O)NCCC5=NC(=CS5)C6=NC(=CS6)C(=O)NCCC[S+](C)C)O [Bleomycin] + C[C@]1(O)C[C@@H](c2nc(-c3ccc4ccc(-c5ccccc5)nc4c3)c3c(N)nccn32)C1 [Linsitinib] (partner 1 µM); conditions: main component drawn
# How it was run: as §1
Cell Line,relative viability (Bleomycin + Dasatinib; first compound 0.01 µM),relative viability (Bleomycin + Dasatinib; first compound 0.03162 µM),relative viability (Bleomycin + Dasatinib; first compound 0.1 µM),relative viability (Bleomycin + Dasatinib; first compound 0.3162 µM),relative viability (Bleomycin + Dasatinib; first compound 1 µM),relative viability (Bleomycin + Pemetrexed; first compound 0.01 µM),relative viability (Bleomycin + Pemetrexed; first compound 0.03162 µM),relative viability (Bleomycin + Pemetrexed; first compound 0.1 µM),relative viability (Bleomycin + Pemetrexed; first compound 0.3162 µM),relative viability (Bleomycin + Pemetrexed; first compound 1 µM),relative viability (Etoposide + Lapatinib; first compound 0.01 µM),relative viability (Etoposide + Lapatinib; first compound 0.03162 µM),relative viability (Etoposide + Lapatinib; first compound 0.1 µM),relative viability (Etoposide + Lapatinib; first compound 0.3162 µM),relative viability (Etoposide + Lapatinib; first compound 1 µM),relative viability (Bleomycin + Linsitinib; first compound 0.01 µM),relative viability (Bleomycin + Linsitinib; first compound 0.03162 µM),relative viability (Bleomycin + Linsitinib; first compound 0.1 µM),relative viability (Bleomycin + Linsitinib; first compound 0.3162 µM),relative viability (Bleomycin + Linsitinib; first compound 1 µM)
NCI-H2228,0.45,0.495,0.618,0.342,0.172,0.317,0.291,0.263,0.199,0.185,0.84,1.05,0.846,0.703,0.138,0.675,0.647,0.714,0.559,0.4
NCI-H322M,0.241,0.26,0.262,0.243,0.263,0.635,0.606,0.723,0.573,0.575,0.558,0.596,0.55,0.586,0.389,0.961,1.01,0.95,1.1,0.684
NCI-H1975,0.34,0.343,0.287,0.13,0.115,0.267,0.252,0.219,0.175,0.166,0.857,1.04,0.739,0.528,0.214,0.896,0.823,0.806,0.315,0.221
NCI-H1944,0.173,0.177,0.159,0.115,0.106,0.36,0.398,0.313,0.216,0.157,0.76,1.01,0.499,0.363,0.226,0.781,0.815,0.5,0.507,0.238
LU99A,0.366,0.505,0.367,0.205,0.125,0.158,0.157,0.159,0.165,0.133,1.09,1.18,0.521,0.347,0.167,0.379,0.348,0.252,0.166,0.127
NCI-H2405,0.206,0.212,0.208,0.181,0.166,0.955,0.974,0.919,0.595,0.408,1.16,1.24,0.746,0.77,0.275,0.745,0.834,0.69,0.373,0.341
NCI-H2009,0.298,0.297,0.311,0.21,0.196,0.889,1.03,1.04,0.736,0.503,0.885,1.08,0.856,0.408,0.247,1.12,1.22,1.17,0.864,0.58
HCC-15,0.613,0.559,0.515,0.0886,0.177,0.22,0.193,0.233,0.193,0.154,0.849,0.832,0.846,0.329,0.152,0.793,0.804,0.763,0.418,0.288
COR-L23,0.394,0.276,0.215,0.0981,0.0987,0.191,0.203,0.193,0.153,0.146,0.854,1.06,0.92,0.588,0.14,0.696,0.559,0.307,0.106,0.102
HCC-78,0.326,0.548,0.366,0.287,0.285,0.895,0.969,0.88,0.832,0.826,1.03,0.836,0.206,0.134,0.202,0.488,0.343,0.343,0.282,0.179
NCI-H838,0.267,0.265,0.243,0.153,0.175,0.247,0.227,0.232,0.19,0.19,0.996,1.02,0.617,0.478,0.171,0.652,0.314,0.191,0.189,0.159
NCI-H2126,0.596,0.619,0.665,0.357,0.276,0.728,0.774,0.629,0.567,0.611,0.784,0.756,0.52,0.595,0.383,0.641,0.756,0.687,0.645,0.546
BEN,0.327,0.342,0.341,0.273,0.249,0.809,0.757,0.723,0.616,0.679,0.81,0.733,–,0.663,0.458,0.862,0.868,0.896,0.637,0.682
EKVX,0.56,0.435,0.502,0.276,0.26,0.36,0.317,0.315,0.285,0.2,0.195,0.197,0.153,0.159,0.143,0.909,0.822,0.859,0.375,0.336
LXF-289,0.19,0.228,0.197,0.077,0.0555,0.852,0.901,0.845,0.588,0.218,0.88,0.972,0.953,0.601,0.222,0.899,0.91,0.839,0.389,0.186
NCI-H661,0.741,0.657,0.623,0.262,0.242,0.886,0.821,0.688,0.412,0.366,0.44,0.416,0.314,0.283,0.235,0.563,0.423,0.312,0.221,0.217
NCI-H2085,0.262,0.221,0.231,0.212,0.209,0.878,0.954,0.811,0.347,0.447,0.777,0.73,0.534,0.599,0.372,0.678,0.823,0.632,0.346,0.363
NCI-H1793,0.382,0.427,0.329,0.17,0.115,0.739,0.729,0.692,0.134,0.191,0.543,0.682,–,0.687,0.288,0.943,0.762,0.719,0.276,0.249
LC-2-ad,0.312,0.373,0.318,0.183,0.145,0.267,0.265,0.251,0.254,0.219,0.867,0.961,0.906,0.649,0.154,0.725,0.691,0.352,0.178,0.118
COR-L 105,0.325,0.35,0.307,0.238,0.215,0.949,1.06,0.971,0.468,0.573,0.271,0.393,0.26,0.343,0.356,0.765,0.798,0.708,0.393,0.317
NCI-H1355,0.668,0.661,0.84,0.252,0.192,1,1.04,1.03,0.648,0.298,1.09,1.03,0.472,0.775,0.248,0.794,0.838,0.783,0.463,0.287
H3255,0.356,0.448,0.426,0.332,0.327,0.608,0.538,0.507,0.479,0.405,0.234,0.241,0.228,0.262,0.196,0.702,0.879,0.902,0.538,0.387
NCI-H1993,0.548,0.604,0.597,0.462,0.464,0.649,0.584,0.496,0.469,0.514,0.95,0.797,0.75,0.659,0.657,0.736,0.745,0.693,0.59,0.518
NCI-H1734,0.357,0.312,0.348,0.145,0.154,0.392,0.406,0.383,0.342,0.273,0.971,1.05,0.612,0.515,0.273,0.73,0.669,0.553,0.311,0.227
HOP-62,0.49,0.479,0.377,0.165,0.106,0.277,0.361,0.303,0.141,0.128,0.973,1.05,0.833,0.533,0.187,0.485,0.554,0.335,0.135,0.112
LOU-NH91,0.562,0.391,0.448,0.306,0.251,0.423,0.38,0.368,0.315,0.271,0.759,0.788,0.576,0.619,0.347,0.78,0.611,0.522,0.37,0.317
NCI-H23,0.535,0.552,0.321,0.148,0.167,0.419,0.342,0.285,0.187,0.171,1.11,1.04,0.608,0.324,0.215,0.292,0.253,0.225,0.152,0.137
PC-3 [JPC-3],0.881,1.09,0.986,0.72,0.618,1.03,1.18,0.948,0.647,0.526,0.432,0.487,0.344,0.475,0.374,0.865,0.944,0.847,0.723,0.53
